Experimental data reported in patent US20230293519A1, “INTEGRIN INHIBITORS AND USES THEREOF IN COMBINATION WITH OTHER AGENTS” (Pliant Therapeutics, Inc., priority 2021, published 2023).

Columns and labels:
SMAD3 phosphorylation = experiment: pSMAD3/SMAD3 in lung tissue and BALF of healthy mice; format: in vivo, mouse; settings: 4 days of treatment, dose dependent
pSMAD2:SMAD2 ratio = pSMAD2:SMAD2 ratio in BAL of healthy human subjects; format: in vivo; settings: subjects with Cmax above 700 ng/mL; Day 7 vs baseline (Day -1)
Description: In order to evaluate the change of pSMAD2 as a biomarker of TGF-β activity following administration of an integrin inhibitor, and to determine a therapeutically effective dosage and an effective blood plasma Cmax of the integrin inhibitor, healthy subjects were administered compound 5, a dual selective αvβ6/avβ1-integrin inhibitor, and the corresponding Cmax levels and decrease in phosphorylation levels and were determined.
Healthy non-smoking adult males without history of lung disease were selected as subjects and were randomized into 4 cohorts. Broncoalevaolar lavage samples were obtained from all subjects 1 day prior to start of treatment. Cohorts 1 and 2 were administered 20 mg of a compound daily, wherein 3 subjects were administered the dual selective αvβ6/αvβ1-integrin inhibitor (compound 5) per every 1 subject receiving a placebo compound. Cohorts 3 and 4 were administered 40 mg of a compound daily, wherein 3 subjects were administered the dual selective αvβ6/αvβ1- integrin inhibitor (compound 5) per every 1 subject receiving a placebo compound. BAL samples and blood samples were taken from all subjects on Day -1 (baseline) and on Day 7 (end of treatment).

With `COCCN(CCCCc1ccc2c(n1)NCCC2)CC[C@H](Nc1ncnc2ccccc12)C(=O)O` [Compound 5, (S)-4-((2-methoxyethyl)(4-(5,6,7,8-tetrahydro-1,8-naphthyridin-2-yl)butyl)amino)-2-(quinazolin-4-ylamino)butanoic acid] the “SMAD3 phosphorylation (pSMAD3/SMAD3) in cells isolated from BALF, % of the untreated levels” value (SMAD3 phosphorylation) was “approximately 50%”, the “SMAD3 phosphorylation (pSMAD3/SMAD3) in lung tissue, % of the untreated levels” value (SMAD3 phosphorylation) was “approximately 50%” and the “reduction in pSMAD2:SMAD2 ratio in BAL” value (pSMAD2:SMAD2 ratio) was no less than 50%.
